We go through three compounds from patent publication US9296704B2, “Substituted pyrimidines as protein kinase inhibitors” (CELGENE AVILOMICS RESEARCH, INC., priority 2007, dated 2016).

Where only a bound is given, the exact number is not on record here.

For one experiment, the target named is T1, JAK3 (Homo sapiens, UniProt P52333).
T1 sequence (P52333 1-1124): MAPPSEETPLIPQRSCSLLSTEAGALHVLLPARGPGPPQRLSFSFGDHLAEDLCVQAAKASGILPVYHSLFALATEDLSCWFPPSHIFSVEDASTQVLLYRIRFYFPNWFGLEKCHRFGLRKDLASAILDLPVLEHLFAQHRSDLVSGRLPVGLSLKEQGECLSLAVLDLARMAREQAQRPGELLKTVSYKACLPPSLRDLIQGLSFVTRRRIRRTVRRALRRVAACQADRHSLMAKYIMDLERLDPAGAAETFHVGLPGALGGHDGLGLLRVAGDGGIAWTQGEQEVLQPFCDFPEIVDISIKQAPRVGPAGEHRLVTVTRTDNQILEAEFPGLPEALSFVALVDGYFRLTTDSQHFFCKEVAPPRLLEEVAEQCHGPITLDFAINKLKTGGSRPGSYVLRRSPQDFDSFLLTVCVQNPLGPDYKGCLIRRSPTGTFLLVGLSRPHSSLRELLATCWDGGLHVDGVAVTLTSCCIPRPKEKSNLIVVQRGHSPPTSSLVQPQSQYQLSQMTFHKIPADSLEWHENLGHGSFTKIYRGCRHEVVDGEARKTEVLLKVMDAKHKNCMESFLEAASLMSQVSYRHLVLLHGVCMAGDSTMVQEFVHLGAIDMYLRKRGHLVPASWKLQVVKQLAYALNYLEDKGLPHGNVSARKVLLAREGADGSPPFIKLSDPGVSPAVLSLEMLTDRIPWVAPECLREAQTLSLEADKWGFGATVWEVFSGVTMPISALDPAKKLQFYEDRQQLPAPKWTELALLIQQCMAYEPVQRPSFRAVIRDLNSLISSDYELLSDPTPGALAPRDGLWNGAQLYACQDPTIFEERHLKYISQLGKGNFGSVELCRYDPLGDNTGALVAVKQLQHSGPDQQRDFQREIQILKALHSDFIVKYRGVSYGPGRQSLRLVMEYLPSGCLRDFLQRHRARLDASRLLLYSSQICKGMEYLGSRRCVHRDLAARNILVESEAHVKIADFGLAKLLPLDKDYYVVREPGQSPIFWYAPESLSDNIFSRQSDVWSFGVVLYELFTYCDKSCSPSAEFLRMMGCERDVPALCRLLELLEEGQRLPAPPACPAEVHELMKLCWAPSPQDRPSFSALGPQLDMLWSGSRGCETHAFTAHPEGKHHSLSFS
Description: Omnia assay for potency against JAK3. The experiment is classed as biochemical. As to conditions: read-out: JAK3 Inhibition. The method, boiled down: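 Continuous-read Omnia kinase assay with 5 nM JAK3, 5 μM ATP (near apparent Km) and 5 μM Y12-Sox peptide in Tris pH 7.5/MgCl2 buffer; enzyme pre-incubated with compound 30 min at 27 °C. Fluorescence (ex360/em485) read over 60 min; initial velocities fitted against inhibitor concentration to give IC50.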

The test system of experiment [1] is BTK signaling in Ramos cells. Description: BTK Ramos cellular assay (PLCγ2 phosphorylation). The following applies: Homo sapiens; Ramos cells, PLCγ2 phosphorylation; read-out: BTK Inhibition. The experiment is classed as cell-based.
The subject of another experiment is BTK in Ramos cells. Put plainly: Washout experiment with Ramos cells for BTK activity. The experiment is classed as cell-based, human. The following applies: Ramos washout assay, 100 nM compound for 1 hour. The method, then: Ramos cells were serum starved for one hour in RPMI media+1% glutamine at 37° C. After starvation, Ramos cells were treated with 100 nM compound diluted in serum free RPMI media for 1 hour. After compound treatment, the media was removed and cells were washed with compound-free media. Subsequently, Ramos cells were washed every 2 hours and resuspended in fresh compound-free media. Cells were collected at specified timepoints, treated with 1 ug anti-human IgM (Southern Biotech cat #2022-01) for 10 minutes on ice to induce BCR signaling and then washed in PBS. Ramos cells were then lysed in Cell Extraction Buffer (Invitrogen FNN0011) supplemented with Roche complete protease inhibitor tablets (Roche 11697498001) and phosphatase inhibitors (Roche 04 906 837 001) and 18 ug total protein lysate was loaded in each lane. Inhibition of BTK kinase activity was assayed by measuring its substrate (PLCγ2) phosphorylation by western blot with phospho-specific antibodies from Cell Signaling Technologies cat#3871. FIG. 10 depicts the results of compound I-13 in the washout experiment at 0 hour, 4 hour, 6 hour, and 8 hour time points.

The next experiment deals with T2, EGFR (WT) (Homo sapiens, UniProt P00533).
T2 construct: purchased Invitrogen PV3872
Put plainly: Omnia continuous-read kinase assay, EGFR (WT). The experiment is classed as biochemical. The following applies: read-out: EGFR inhibtion. Summed up: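 Enzyme pre-incubated 30 min at 27 °C with compound, then ATP/Y12-Sox peptide added; fluorescence (ex360/em485) read continuously 60 min in 20 mM Tris pH 7.5, 5 mM MgCl2, 0.2 mM DTT. WT: 5 nM enzyme, […]; T790M/L858R: 3 nM enzyme, […]. IC50 from initial velocities, variable-slope fit.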

The target of the next experiment is BTK (Homo sapiens, UniProt Q06187). Put plainly: Omnia assay for potency against BTK. The experiment is classed as biochemical. As to conditions: read-out: BTK Inhibition. The method, boiled down:
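BTK (5 nM) was pre-incubated 30 min at 27° C with serially diluted compounds in Tris pH 7.5/MgCl2 buffer, then started with […] and Y5-Sox peptide 10 mM (ATP KMapp ~36 mM). Fluorescence (ex360/em485) was read continuously over 60 min. IC50 came from initial velocities using a variable-slope fit.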

The test system of experiment [2] is EGFR (ErbB1) in A431 human epidermoid carcinoma cells. Put plainly: Washout experiment for EGFR activity in A431 cells. The experiment is classed as cell-based. As to conditions: for enzyme inhibition after washout: A431 cells, 1 μM for 1 hr, EGF stimulation. Here is the method: A431 human epidermoid carcinoma cells were grown in 6-well plates to 90% confluence and then incubated in serum-free media for 18 hr. Duplicate sets of cells were treated with 1 μM designated compound for 1 hr. One set of cells was then stimulated with 100 ng/ml EGF for 5 min, and extracts were made as described. The other set of cells was washed free of the compound with warmed compound-free medium, incubated for 2 hr, washed again, incubated another 2 hr, washed again, and then incubated another 2 hr washed again and incubated for additional 2 hr and then stimulated with EGF.

T2 sequence (P00533 25-1210): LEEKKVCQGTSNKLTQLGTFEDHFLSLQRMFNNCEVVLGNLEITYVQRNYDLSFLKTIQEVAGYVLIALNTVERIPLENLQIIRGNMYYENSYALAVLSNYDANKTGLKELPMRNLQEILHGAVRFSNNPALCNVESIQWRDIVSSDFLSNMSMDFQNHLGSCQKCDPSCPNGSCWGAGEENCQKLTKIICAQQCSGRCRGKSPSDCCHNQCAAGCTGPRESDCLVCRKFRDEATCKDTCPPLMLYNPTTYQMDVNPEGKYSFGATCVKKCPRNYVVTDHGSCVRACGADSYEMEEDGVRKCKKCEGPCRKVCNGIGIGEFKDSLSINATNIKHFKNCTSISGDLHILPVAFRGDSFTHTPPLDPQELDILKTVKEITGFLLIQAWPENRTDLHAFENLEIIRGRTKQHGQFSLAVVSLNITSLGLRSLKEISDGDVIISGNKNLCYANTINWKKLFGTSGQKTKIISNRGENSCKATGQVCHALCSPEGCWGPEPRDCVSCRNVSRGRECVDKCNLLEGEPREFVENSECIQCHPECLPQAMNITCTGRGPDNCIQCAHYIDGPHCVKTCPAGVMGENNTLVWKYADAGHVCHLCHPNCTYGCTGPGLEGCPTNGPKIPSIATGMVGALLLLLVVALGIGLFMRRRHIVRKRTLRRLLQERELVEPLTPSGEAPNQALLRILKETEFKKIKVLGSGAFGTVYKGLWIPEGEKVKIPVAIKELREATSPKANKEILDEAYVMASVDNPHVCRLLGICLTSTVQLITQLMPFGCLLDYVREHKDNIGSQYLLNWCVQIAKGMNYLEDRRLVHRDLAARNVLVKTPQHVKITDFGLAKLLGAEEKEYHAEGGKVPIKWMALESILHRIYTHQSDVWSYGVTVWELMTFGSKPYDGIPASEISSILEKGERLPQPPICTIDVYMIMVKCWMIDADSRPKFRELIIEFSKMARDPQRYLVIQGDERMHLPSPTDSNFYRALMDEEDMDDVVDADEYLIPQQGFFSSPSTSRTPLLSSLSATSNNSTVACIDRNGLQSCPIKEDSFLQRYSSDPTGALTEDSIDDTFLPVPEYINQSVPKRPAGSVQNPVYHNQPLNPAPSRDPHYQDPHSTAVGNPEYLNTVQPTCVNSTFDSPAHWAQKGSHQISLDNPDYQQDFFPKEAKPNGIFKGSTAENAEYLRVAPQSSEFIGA
Chain of BTK (Q06187 whole entry): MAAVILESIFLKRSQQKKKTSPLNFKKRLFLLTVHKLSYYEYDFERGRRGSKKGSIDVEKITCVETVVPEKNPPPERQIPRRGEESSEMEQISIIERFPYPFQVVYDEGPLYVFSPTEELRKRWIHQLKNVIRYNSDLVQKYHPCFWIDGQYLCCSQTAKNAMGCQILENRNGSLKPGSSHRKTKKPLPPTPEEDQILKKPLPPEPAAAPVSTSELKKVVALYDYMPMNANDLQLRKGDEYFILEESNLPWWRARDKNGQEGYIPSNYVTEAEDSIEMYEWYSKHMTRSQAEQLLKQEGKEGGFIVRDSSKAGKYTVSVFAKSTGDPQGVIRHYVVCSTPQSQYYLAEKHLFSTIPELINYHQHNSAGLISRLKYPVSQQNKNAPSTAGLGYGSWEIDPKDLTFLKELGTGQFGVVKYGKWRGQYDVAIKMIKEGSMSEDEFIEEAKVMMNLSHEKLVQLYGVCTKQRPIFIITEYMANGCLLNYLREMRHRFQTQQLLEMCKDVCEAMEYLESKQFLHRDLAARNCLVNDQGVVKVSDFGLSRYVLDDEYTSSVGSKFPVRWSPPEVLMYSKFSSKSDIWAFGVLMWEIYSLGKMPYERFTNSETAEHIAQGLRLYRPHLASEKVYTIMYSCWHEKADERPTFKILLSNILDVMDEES

For `CN(C)C/C=C/C(=O)Nc1cccc(Nc2cc(Oc3ccc(Oc4ccccc4)cc3)ncn2)n1` [I-82], the IC50 is 10 to 100 nM at JAK3, no more than 10 nM in experiment [1], no more than 10 nM on EGFR (WT) and no more than 10 nM at BTK. In the experiment on BTK in Ramos cells, the “BTK Inhibition Type” value was “irreversible”.

As to `C=CC(=O)Nc1ccc(Nc2cc(Nc3cccc(Br)c3)ncn2)cc1` [I-93, N-(4-[6-(3-bromophenylamino)-pyrimidin-4-ylamino]phenyl)-2-propenamide], the IC50 at JAK3 is no less than 10000 nM; at EGFR (WT), no more than 10 nM; on BTK it was 1000 to 10000 nM. The “enzyme inhibition after washout” value in experiment [2] was “washed away”. The “type of binding to ErbB1 (irreversible / reversible)” value in experiment [2] (washout experiment, FIG. 2) is given as “reversibly binds to ErbB1”.

Turning to `CCC(=O)Nc1cccc(Nc2cc(Nc3cccc(Br)c3)ncn2)c1` [I^R-3, N-{3-[6-(3-bromophenylamino)-pyrimidin-4-ylamino]phenyl}-propionamide, reference compound], in experiment [2], the “enzyme inhibition after washout” value is “washed away”.
